Patent publication US20230058623A1, “NOVEL HETEROARYL-TRIAZOLE COMPOUNDS AS PESTICIDES” (Bayer Aktiengesellschaft, priority 2019, published 2023)

Legend:
Type in all cases: in vivo
[1] = tested on: fall armyworm larvae (Spodoptera frugiperda); assay: Spodoptera frugiperda spray test; settings: 168 h, application rate 100 g/ha, after 7 days, maize leaf sections
Method: Spodoptera frugiperda—Spray Test
(§1) To produce a suitable preparation of active compound, 1 part by weight of active compound is mixed with the stated amount of solvents and is diluted with water, containing an emulsifier concentration of 1000 ppm, to the desired concentration. Further test concentrations are prepared by dilution with emulsifier containing water.
Maize (Zea mays) leaf sections are sprayed with a preparation of the active ingredient of the desired concentration. Once dry, the leaf sections are infested with fall armyworm larvae (Spodoptera frugiperda).
After 7 days mortality in % is determined. 100% means all caterpillars have been killed and 0% means none of the caterpillars have been killed.

[2] = tested on: Rhipicephalus (Boophilus) microplus larvae (strain Parkhurst, resistant against synthetic pyrethroids); assay: Rhipicephalus (Boophilus) microplus in-vitro contact test, larval cattle tick; settings: after 48 hours, read-out: activity (efficacy: larvae dead or moribund); for pest or weed control at 1 µg/cm2, 100 g/ha: application rate 1 μg/cm^2 (=100 g/ha); for pest or weed control at 5 µg/cm2, 500 g/ha: application rate 5 μg/cm^2 (=500 g/ha)
Method: Rhipicephalus (Boophilus) microplus—In-Vitro Contact Tests Larval Cattle Tick (Strain Parkhurst, Resistant Against Synthetic Pyrethroids)
9 mg compound is solved in 1 ml acetone and diluted with acetone to the desired concentration. 250 μL of the test solution is filled in 25 mL glass test tubes and homogeneously distributed on the inner walls by rotation and tilting on a shaking device (2 h at 30 rpm). With a compound concentration of 900 ppm, an inner surface of 44.7 cm^2 and a homogeneous distribution, a dose of 5 μg/cm^2 is achieved.
After the solvent has evaporated, each test tube is filled with 20-50 cattle tick larvae (Rhipicephalus microplus), closed with a perforated lid and incubated in a horizontal position at 85% relative humidity and 27° C. in an incubator. After 48 hours efficacy is determined. The larvae are patted on the ground of the tubes and negative geotactic behavior is recorded.
An efficacy of 100% means all larvae are dead or moribund; 0% means no larvae are dead or moribund.

[3] = tested on: adult brown dog ticks (Rhipicephalus sanguineus); assay: Rhipicephalus sanguineus in-vitro contact test, adult brown dog ticks; settings: application rate 5 μg/cm^2 (=500 g/ha), after 48 hours, read-out: activity (efficacy: ticks dead or moribund)
Method: Rhipicephalus sanguineus—In-Vitro Contact Tests with Adult Brown Dog Ticks
(§2) 9 mg compound is solved in 1 mL acetone and diluted with acetone to the desired concentration. 250 μL of the test solution is filled in 25 mL glass test tubes and homogeneously distributed on the inner walls by rotation and tilting on a shaking device (2 h at 30 rpm). With a compound concentration of 900 ppm, an inner surface of 44.7 cm^2 and a homogeneous distribution, a dose of 5 μg/cm^2 is achieved.
After the solvent has evaporated, each test tube is filled with 5-10 adult brown dog ticks (Rhipicephalus sanguineus), closed with a perforated lid and incubated in a lying position at room temperature and relative humidity. After 48 hours efficacy is determined. The ticks are patted on the ground of the tubes and are incubated on a heating plate at 45-50° C. for at most 5 minutes. Immotile or uncoordinated moving ticks, which are not able to escape the heat by climbing upwards, are marked as dead or moribund.
An efficacy of 100% means all ticks are dead or moribund; 0% means no ticks are dead or moribund.

[4] = tested on: larvae of the banded cucumber beetle (Diabrotica balteata); assay: Diabrotica balteata spray test; settings: 168 h, application rate 100 g/ha (=32 μg/well), after 7 days, wheat seeds, read-out: activity (efficacy: seedlings grown)
Method: Diabrotica balteata—Spray Test
To produce a suitable preparation of active compound, 1 part by weight of active compound is mixed with the stated amount of solvent, and the concentrate is diluted with water, containing an emulsifier concentration of 1000 ppm, to the desired concentration. Further test concentrations are prepared by dilution with emulsifier containing water.
Soaked wheat seeds (Triticum aestivum) are placed in a multiple well plate filled with agar and some water and are incubated for 1 day to germinate (5 seeds per well). The germinated wheat seeds are sprayed with a test solution containing the desired concentration of the active ingredient. Afterwards each unit is infected with 10-20 larvae of the banded cucumber beetle (Diabrotica balteata).
After 7 days efficacy in % is determined. 100% means all the seedlings have grown up like in the untreated, uninfected control; 0% means none of the seedlings have grown.

[5] = tested on: adult cat fleas (Ctenocephalides felis); assay: Ctenocephalides felis in-vitro contact test, adult cat flea; settings: application rate 5 μg/cm^2 (=500 g/ha), after 48 hours, read-out: activity (efficacy: fleas dead or moribund)
Method: Ctenocephalides felis—In-Vitro Contact Tests Adult Cat Flea
as §2
After the solvent has evaporated, each test tube is filled with 5-10 adult cat fleas (Ctenocephalides felis), closed with a perforated lid and incubated in a lying position at room temperature and relative humidity. After 48 hours efficacy is determined. The fleas are patted on the ground of the tubes and are incubated on a heating plate at 45-50° C. for at most 5 minutes. Immotile or uncoordinated moving fleas, which are not able to escape the heat by climbing upwards, are marked as dead or moribund.
An efficacy of 100% means all fleas are dead or moribund; 0% means no fleas are dead or moribund.

[6] = tested on: green peach aphid (Myzus persicae); assay: Myzus persicae oral test; settings: 120 h, read-out: activity (mortality)
Method: Solvent: 100 parts by weight acetone
To produce a suitable preparation of active compound, 1 part by weight of active compound is mixed with the stated amount of solvent, and the concentrate is diluted with water to the desired concentration.
50 μL compound solution is filled in microtiter plates and 150 μL IPL41 insect medium (33%+15% sugar) is added to obtain a total volume of 200 μL per well. Afterwards the plates are sealed with parafilm through which a mixed population of the green peach aphid (Myzus persicae) can suck on the compound preparation.
(§3) After 5 days mortality in % is determined. 100% means all aphids have been killed and 0% means none of the aphids have been killed.

[7] = tested on: green peach aphid (Myzus persicae); assay: Myzus persicae spray test; settings: foliar, 120 h, after 5 days, Chinese cabbage leaf disks; for mortality at 100 g/ha: application rate 100 g/ha, read-out: activity (mortality)
Method: Myzus persicae—Spray Test
as §1
Chinese cabbage (Brassica pekinensis) leaf disks infected with all instars of the green peach aphid (Myzus persicae), are sprayed with a preparation of the active ingredient of the desired concentration.
as §3

| SMILES | mortality at 100 g/ha [1] | pest or weed control at 1 µg/cm2, 100 g/ha [2] | pest or weed control at 5 µg/cm2, 500 g/ha [2] | pest or weed control at 5 µg/cm2, 500 g/ha [3] | pest or weed control at 32 µg/disc, 100 g/ha [4] | pest or weed control at 5 µg/cm2 [5] | mortality at 4 ppm [6] | mortality at 500 g/ha ([7]; application rate 500 g/ha) | mortality at 100 g/ha [7] |
| --- | --- | --- | --- | --- | --- | --- | --- | --- | --- |
| CC(NC(=O)c1cc(C(F)(F)F)cc(C(F)(F)F)c1)c1nc(Br)nn1-c1ccc(C(=O)N2CCOCC2)cn1 (racemic) [Example I-86, N-[1-[5-bromo-2-[5-(morpholine-4-carbonyl)-2-pyridyl]-1,2,4-triazol-3-yl]ethyl]-3,5-bis(trifluoromethyl)benzamide] | 83% | 100% | 100% | 80% | 100% | – | – | – | – |
| C[C@H](NC(=O)c1cc(Cl)cc(C(F)(F)F)c1)c1ncnn1-c1ccc(N2CCOCC2)cn1 [Example I-43] | – | 100% | 100% | 100% | 100% | – | – | – | – |
| C[C@@H]1CN(C(=O)c2ccc(-n3ncnc3[C@H](C)NC(=O)c3cc(Cl)cc(S(C)(=O)=O)c3)nc2)C[C@H](C)O1 [Example I-53] | 100% | – | – | – | – | 100% | 100% | – | – |
| C[C@H](NC(=O)c1cc(Cl)cc(C(F)(F)F)c1)c1ncnn1-c1ccc(N2CCSCC2=O)cn1 [Example I-55] | – | – | – | – | – | 80% | 100% | – | – |
| C[C@H](NC(=O)c1cc(OC(F)(F)F)cc(C2CC2)c1)c1ncnn1-c1ccc(N2CCOCC2=O)cn1 [Example I-58] | – | – | – | – | – | – | – | 90% | – |
| C[C@H](NC(=O)c1cc(OC(F)(F)F)cc(C2CC2)c1)c1ncnn1-c1ccc(C(=O)N2CCOC[C@@H]2C)cn1 [Example I-66] | 83% | 100% | 100% | – | 100% | 100% | – | – | – |
| C[C@H](NC(=O)c1cc(C(F)(F)F)cc(C(F)(F)F)c1)c1ncnn1-c1ccc(C(=O)N2CCOC[C@H]2C)cn1 [Example I-71] | 100% | 100% | 100% | 80% | 100% | 100% | 100% | – | – |
| Cc1nc([C@H](C)NC(=O)c2cc(C(F)(F)F)cc(C(F)(F)F)c2)n(-c2ccc(C(=O)N3CCOCC3c3ncno3)cn2)n1 (stereo partly shown) [Example I-99] | – | 100% | 100% | 80% | – | 100% | 100% | – | 90% |
| C[C@H](NC(=O)c1cc(C(F)(F)F)cc(C(F)(F)F)c1)c1ncnn1-c1ccc(C(=O)N2CCOCC2c2ccnn2C)cn1 (stereo partly shown) [Example I-100] | 83% | 90% | 90% | – | 100% | 80% | – | – | – |
| Cc1nc([C@H](C)NC(=O)c2cc(C(F)(F)F)cc(C(F)(F)F)c2)n(-c2ccc(C(=O)N3CCOCC3c3ccnn3C)cn2)n1 (stereo partly shown) [Example I-101] | 100% | 80% | 80% | – | – | 80% | – | – | – |
| C[C@H](NC(=O)c1cc(OC(F)(F)F)cc(C2CC2)c1)c1ncnn1-c1ccc(N2CCOCC2)cn1 [Example I-104] | – | 100% | 100% | – | 100% | 90% | – | – | 90% |
| C[C@H](NC(=O)c1cc(C(F)(F)F)cc(C(F)(F)F)c1)c1ncnn1-c1ccc(C(=O)N(C)C2CCOCC2)cn1 [Example I-110] | 100% | 100% | 100% | – | – | 100% | 100% | – | 90% |
| Cc1nc([C@H](C)NC(=O)c2cc(OC(F)(F)F)cc(C3CC3)c2)n(-c2ccc(C(=O)N3CCOC[C@@H]3C)cn2)n1 [Example I-129] | – | 100% | 100% | – | – | 100% | – | – | – |
| Cc1nc([C@H](C)NC(=O)c2cc(Br)cc(OC(F)(F)F)c2)n(-c2ncc(C(=O)N3CCOCC3)s2)n1 [Example I-136] | 100% | 100% | 100% | 100% | – | – | – | – | – |
| Cc1nc([C@H](C)NC(=O)c2cc(C(F)(F)F)cc(C(F)(F)F)c2)n(-c2ccc(C(=O)N3C[C@@H](C)O[C@@H](C)C3)nn2)n1 [Example I-139] | – | 100% | 100% | 100% | 100% | – | – | – | – |
| C[C@@H]1CN(C(=O)c2cnc(-n3ncnc3[C@H](C)NC(=O)c3cc(OC(F)(F)F)cc(C4CC4)c3)nc2)C[C@H](C)O1 [Example I-148] | 100% | – | – | – | 100% | – | – | – | 90% |
